Values of other authors in patent US7935730B2, “Method of enhancing reproductive function of mammals by feeding of conjugated linoleic acids” (Cornell Research Foundation, Inc., priority 2006, dated 2011).

Key:
[1] = in vivo
[2] = tested on: young rodents; details: proposed

SMILES	effect on milk and body fat [1]	feed efficiency and growth [2]
CCCCC/C=C\C=C\CCCCCCCCC(=O)O [trans-10, cis-12 CLA]	reduction	–
CCCCCC/C=C/C=C\CCCCCCCC(=O)O [cis-9, trans-11 CLA]	no effect	enhance
